Laboratory results reported in patent publication US7704979B2, “Materials and methods for the treatment or prevention of obesity” (The University of Tennessee Research Foundation, priority 2000, dated 2010).

Experiments:
[1] = system: human adipocytes; test: GPDH activity in human adipocytes (Example 4); type: cell-based
Experimental: A human adipocyte cell line and primary-cultured human adipocytes were both used as cell models in this study. The human adipocyte cell line was differentiated from human preadipocytes obtained from Zen-Bio Inc. (Research Triangle Park, N.C.). Human preadipocytes were inoculated in Dulbecco's Modified Eagle' Medium (DMEM)/Ham' F-10 medium (F-10) (1:1, v/v) containing 10% fetal bovine serum (FBS), 15mM Hepes and antibiotics at a density of 30,000 cells/cm^2. Confluent monolayers of preadipocytes were induced to differentiate with a standard differentiation medium consisting of DMEM/F-10 (1:1, v/v) medium supplemented with 15 mM Hepes, 3% FBS, 33 μM biotin, 17 μM pantothenate, 100 nM insulin, 0.25 mM methylisobutylxanthine (MIX), 1 μM dexamethasome, 1 μM BRL49653 and antibiotics. Preadipocytes were maintained in this differentiation medium for 3 days and subsequently cultured in adipocyte medium in which BRL49653 and MIX were withdrawn. Cultures were re-fed every 2-3 days (Shi, H., et al., “Role of intracellular calcium in human adipocyte differentiation,” Phyisol. Genomics. (2000) pp. 75-82, vol. 3.). Primary-cultured human adipocytes were derived from human subcutaneous adipose tissue obtained from patients undergoing abdominal plastic surgery with no known history of metabolic disorders. This protocol was approved by the Institutional Review Board for Human Subjects and the Committee for Research Participation of the University of Tennessee. Adipocytes were isolated according to the teachings of (Shi, H., et al., “Role of the sulfonylurea receptor in regulating human adipocyte metabolism,” FASEB. J. (1999) pp. 1833-38, vol. 13.). Briefly, adipose tissue was first washed several times with Hank's Balanced Salt Solution, minced into small pieces and digested with 1 mg/ml type1 collagenase in a shaking water bath at 37° C. for 30 min. Adipocytes were then filtered through a sterile 500 μm nylon mesh and cultured in Dulbecco's Modified Eagle's Medium (DMEM) supplemented with 1% fetal bovine serum (FBS), 100 UI/ml penicillin, 100 μg/ml streptomycin and 50 μg/ml gentamicin. Cells were cultured in suspension and maintained in a thin layer at the top of culture media, which were changed every day. Cells were maintained viable and metabolically responsive under this culture condition for 7 days. FAS and GPDH activity was determined spectrophotometrically in crude cytosolic extracts of human adipocytes as previously described (Shi, H., et al., “Role of the sulfonylurea receptor in regulating human adipocyte metabolism,” FASEB. J. (1999) pp. 1833-38, vol. 13). Human adipocytes were homogenized in 250 mmol/L sucrose solution containing 1 mmol/L ethylenediamine-tetraacticacid (EDTA), 1 mmol/L dithiothreitol (DTT), and 100 μmol/L phenylmethylsulfonyl fluoride (PMSF) (pH 7.4). […]

[2] = system: human adipocytes; test: Human adipocyte [Ca2+]i, fura-2 imaging (Example 4); type: cell-based
[3] = system: human adipocytes; test: FAS activity in human adipocytes (Example 4); type: cell-based
Experimental: A human adipocyte cell line and primary-cultured human adipocytes were both used as cell models in this study. The human adipocyte cell line was differentiated from human preadipocytes obtained from Zen-Bio Inc. (Research Triangle Park, N.C.). Human preadipocytes were inoculated in Dulbecco's Modified Eagle' Medium (DMEM)/Ham' F-10 medium (F-10) (1:1, v/v) containing 10% fetal bovine serum (FBS), 15mM Hepes and antibiotics at a density of 30,000 cells/cm^2. Confluent monolayers of preadipocytes were induced to differentiate with a standard differentiation medium consisting of DMEM/F-10 (1:1, v/v) medium supplemented with 15 mM Hepes, 3% FBS, 33 μM biotin, 17 μM pantothenate, 100 nM insulin, 0.25 mM methylisobutylxanthine (MIX), 1 μM dexamethasome, 1 μM BRL49653 and antibiotics. Preadipocytes were maintained in this differentiation medium for 3 days and subsequently cultured in adipocyte medium in which BRL49653 and MIX were withdrawn. Cultures were re-fed every 2-3 days (Shi, H., et al., “Role of intracellular calcium in human adipocyte differentiation,” Phyisol. Genomics. (2000) pp. 75-82, vol. 3.). Primary-cultured human adipocytes were derived from human subcutaneous adipose tissue obtained from patients undergoing abdominal plastic surgery with no known history of metabolic disorders. This protocol was approved by the Institutional Review Board for Human Subjects and the Committee for Research Participation of the University of Tennessee. Adipocytes were isolated according to the teachings of (Shi, H., et al., “Role of the sulfonylurea receptor in regulating human adipocyte metabolism,” FASEB. J. (1999) pp. 1833-38, vol. 13.). […] FAS and GPDH activity was determined spectrophotometrically in crude cytosolic extracts of human adipocytes as previously described (Shi, H., et al., “Role of the sulfonylurea receptor in regulating human adipocyte metabolism,” FASEB. J. (1999) pp. 1833-38, vol. 13). […]

[4] = system: human adipocytes; test: FAS mRNA expression in human adipocytes, Northern blot (Example 4); type: cell-based
Experimental: A human adipocyte cell line and primary-cultured human adipocytes were both used as cell models in this study. The human adipocyte cell line was differentiated from human preadipocytes obtained from Zen-Bio Inc. (Research Triangle Park, N.C.). Human preadipocytes were inoculated in Dulbecco's Modified Eagle' Medium (DMEM)/Ham' F-10 medium (F-10) (1:1, v/v) containing 10% fetal bovine serum (FBS), 15mM Hepes and antibiotics at a density of 30,000 cells/cm^2. Confluent monolayers of preadipocytes were induced to differentiate with a standard differentiation medium consisting of DMEM/F-10 (1:1, v/v) medium supplemented with 15 mM Hepes, 3% FBS, 33 μM biotin, 17 μM pantothenate, 100 nM insulin, 0.25 mM methylisobutylxanthine (MIX), 1 μM dexamethasome, 1 μM BRL49653 and antibiotics. Preadipocytes were maintained in this differentiation medium for 3 days and subsequently cultured in adipocyte medium in which BRL49653 and MIX were withdrawn. Cultures were re-fed every 2-3 days (Shi, H., et al., “Role of intracellular calcium in human adipocyte differentiation,” Phyisol. Genomics. (2000) pp. 75-82, vol. 3.). Primary-cultured human adipocytes were derived from human subcutaneous adipose tissue obtained from patients undergoing abdominal plastic surgery with no known history of metabolic disorders. This protocol was approved by the Institutional Review Board for Human Subjects and the Committee for Research Participation of the University of Tennessee. Adipocytes were isolated according to the teachings of (Shi, H., et al., “Role of the sulfonylurea receptor in regulating human adipocyte metabolism,” FASEB. J. (1999) pp. 1833-38, vol. 13.). Briefly, adipose tissue was first washed several times with Hank's Balanced Salt Solution, minced into small pieces and digested with 1 mg/ml type1 collagenase in a shaking water bath at 37° C. for 30 min. […] ZERO-Dscan software (Scanalytics, Inc, Fairfax, Va.) was used to quantitatively analyze these images.

[5] = system: human adipocytes; test: Basal lipolysis (glycerol release) in human adipocytes (Example 4); type: cell-based
Experimental: (§1) A human adipocyte cell line and primary-cultured human adipocytes were both used as cell models in this study. The human adipocyte cell line was differentiated from human preadipocytes obtained from Zen-Bio Inc. (Research Triangle Park, N.C.). Human preadipocytes were inoculated in Dulbecco's Modified Eagle' Medium (DMEM)/Ham' F-10 medium (F-10) (1:1, v/v) containing 10% fetal bovine serum (FBS), 15mM Hepes and antibiotics at a density of 30,000 cells/cm^2. Confluent monolayers of preadipocytes were induced to differentiate with a standard differentiation medium consisting of DMEM/F-10 (1:1, v/v) medium supplemented with 15 mM Hepes, 3% FBS, 33 μM biotin, 17 μM pantothenate, 100 nM insulin, 0.25 mM methylisobutylxanthine (MIX), 1 μM dexamethasome, 1 μM BRL49653 and antibiotics. Preadipocytes were maintained in this differentiation medium for 3 days and subsequently cultured in adipocyte medium in which BRL49653 and MIX were withdrawn. Cultures were re-fed every 2-3 days (Shi, H., et al., “Role of intracellular calcium in human adipocyte differentiation,” Phyisol. Genomics. (2000) pp. 75-82, vol. 3.). Primary-cultured human adipocytes were derived from human subcutaneous adipose tissue obtained from patients undergoing abdominal plastic surgery with no known history of metabolic disorders. […]

[6] = system: nVDR; conditions: cited from earlier work
[7] = system: human adipocytes; test: Isoproterenol-stimulated lipolysis in human adipocytes (Example 4); type: cell-based
Experimental: as §1

[8] = system: human adipocytes; test: Forskolin-stimulated lipolysis (glycerol release) in human adipocytes; type: cell-based; conditions: data not shown
[9] = system: human adipocytes; test: Intracellular Ca2+ in primary cultures of human adipocytes (fura-2 fluorometry); type: cell-based; conditions: read-out: EC50 for increase in intracellular Ca2+
Experimental: Human subcutaneous adipose tissue was obtained from patients with no known history of metabolic disorders undergoing abdominal plastic surgery. Adipocytes were isolated by washing, mincing, collagenase digestion, and filtration as described previously and cultured in Dulbecco's modified Eagle's medium supplemented with 1% fetal bovine serum, penicillin (100 IU/ml), streptomycin (100 μg/ml), and gentamicin (50 μg/ml). Cells were cultured in suspension and maintained in a thin layer at the top of the culture media, which was changed every day. Cells were studied about 72 hours after isolation and were serum-starved prior to study.
Intracellular Ca^2+ was determined fluorometrically as described previously. Cells were washed with HEPES-buffered salt solution loaded with fura-2-acetoxymethyl ester (10 μM) for 45 minutes at 37° C. in the dark with continuous shaking. Cells were then rinsed three times, resuspended, and intracellular Ca^2+ was measured using dual excitation (340 and 380 nm)/single emission (510 nm) fluorometry. After the establishment of a stable baseline, the response to 1,25-(OH)2-D or parathyroid hormone (10 pM-100 nM) or their respective vehicles was determined. Digitonin (25 μM) and Tris/EGTA (100 mM, pH 8.7) were used to for calibration to calculate the final intracellular Ca^2+.

For `C=C1/C(=C\C=C2/CCC[C@]3(C)[C@@H]([C@H](C)CCCC(C)(C)O)CC[C@@H]23)C[C@@H](O)C[C@@H]1O` [1α,25-(OH)2-D3, 1α,25-Dihydroxyvitamin D3], the “increase in human adipocyte GPDH activity” value ([1]; 5 nM) was 50%, the “[Ca2+]i response in human adipocytes” value [2] was “significant increase of [Ca^2+]i in human adipocyte in a dose-dependent manner” and the “increase in adipocyte FAS activity” value ([3]; 5 nM, over 48 hrs) was 40%. The “increase in FAS mRNA expression” value [4] was 2 fold.
For `C[C@H](CCCC(C)(C)O)[C@H]1CC[C@H]2C3=CC=C4C[C@@H](O)C[C@H](O)[C@@]4(C)[C@@H]3CC[C@]12C` [1α,25-(OH)2-lumisterol3, 1α,25-dihydroxylumisterol3], the “inhibition of adipocyte basal lipolysis” value [5] is listed as 50%, the “binding affinity to nVDR” value [6] is listed as “low binding affinity” and the “inhibition of isoproterenol-stimulated lipolysis” value [7] is listed as 53%. The “stimulation of GPDH activity” value ([1]; human adipocytes) was 2.8 fold, the “[Ca2+]i response in human adipocytes” value [2] was “marked dose-responsive increases” and the “increase in FAS activity” value ([3]; human adipocytes) was 2.5 fold. For the same compound, the “increase in FAS mRNA expression” value [4] was 2.5 fold.
For `C=C1/C(=C\C=C2/CCC[C@]3(C)[C@@H]([C@H](C)CCCC(C)(C)O)CC[C@@H]23)C[C@@H](O)C[C@H]1O` [1β,25-(OH)2-D3, 1β,25-dihydroxyvitamin D3], the “effects on nVDR” value [6] is listed as “no effects”, the “effect on 1α,25-(OH)2-D3 stimulated GPDH activity” value ([1]; human adipocytes) is listed as “little effect” and the “effect on 1α,25-(OH)2-lumisterol3 stimulated GPDH activity” value ([1]; human adipocytes) is listed as “markedly inhibited”. For the same compound, the “effect of pre-treatment on 1α,25-(OH)2-lumisterol3-induced increases in [Ca2+]i” value ([2]; pre-treatment of human adipocytes) was “completely prevented”, the “effect of pretreatment on stimulation of FAS activity” value ([3]; pretreatment of human adipocytes) was “completely prevented” and the “effect on stimulation of FAS mRNA expression” value [4] was “completely blocked”.
`CC(C)NCC(O)c1ccc(O)c(O)c1` (centres unmarked) [isoproterenol] showed an increase in lipolysis [7] of 3.2 fold.
In the case of parathyroid hormone [PTH], the effect on lipolysis [8] is reported as “little effect” and the EC50 [9] is reported as roughly 10 nM.
